Paper PMC10064330, “Reversible Dual-Covalent Molecular Locking of the 14-3-3/ERRγ Protein–Protein Interaction as a Molecular Glue Drug Discovery Approach” (Journal of the American Chemical Society, 2023)

Biological target: T1, 14-3-3γ/SOS1 complex (Homo sapiens, UniProt P61981)
T1 construct: made in house; host or cells: E. coli NiCo21 (DE3)
T1 sequence (P61981 1-247): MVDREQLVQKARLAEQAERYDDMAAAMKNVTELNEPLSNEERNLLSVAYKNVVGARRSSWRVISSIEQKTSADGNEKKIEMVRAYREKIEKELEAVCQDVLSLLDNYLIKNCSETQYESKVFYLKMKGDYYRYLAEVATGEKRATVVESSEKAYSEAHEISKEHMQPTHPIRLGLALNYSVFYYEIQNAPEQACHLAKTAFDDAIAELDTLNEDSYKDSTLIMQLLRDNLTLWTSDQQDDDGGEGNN
Experiment: FA selectivity screen, SOS1 client peptide
Assay type: binding
Settings: 100 μM compound, SOS1 peptide (+1 Ala)
Procedure: Drugging the hub protein 14-3-3 raises the challenge of selectivity, given that 14-3-3 binds several hundred phosphoprotein partners (Figure 4a).[54] We hypothesized that the interplay of chemical reactivity, the topology, and functionality of the composite binding pocket shaped by 14-3-3 and the interaction partner drives selective stabilization of the 14-3-3/ERRγ complex.[53] To validate selectivity, molecular locks 5 and 10 were tested against a panel of nine 14-3-3 client peptides in an FA assay, and the SF100 was determined for each 14-3-3 PPI (Figure 4b and Figures S18–S20). This client panel contained a diverse representation of 14-3-3 binding proteins, differing for example in size and hydrophobicity of the +1 amino acid. Importantly, clients PKR and RND3, each containing a +1 Cys, were included in the panel.
Figure S20. KD and SF100 plot – selectivity screen. […]
nine different client peptides in presence of DMSO (negative control) or 100 µM of compound 1, 5 or 10 (based on binding curves in Figure S19). […]
A pPROEX HTb expression vector encoding the human 14-3-3 protein gamma (14-3-3γ) with a N-terminal his6-tag was transformed by heat shock into NiCo21 (DE3) competent cells. […] Finally, the protein was concentrated to ∼60 mg/mL, analyzed Q-Tof LC/MS, and aliquots were flash-frozen for storage at −80 °C. […]

CN(C)CCSSCCN(C)C(=O)c1ccc(C=O)c(F)c1 [compound 5]
off-target effect in client screen: minor off-target effects
